Here are results for two compounds from US20080248486A1, “Type Pept1 Protein Assay” (Iongate Biosciences GmbH, priority 2004, published 2008).

For one data set, the system named is peptide transporter. As to conditions: Meredith et al. 1998; cited from earlier work.
The target in data set [1] is T1, PepT1 (Homo sapiens, UniProt P46059).
T1 sequence (P46059 1-708): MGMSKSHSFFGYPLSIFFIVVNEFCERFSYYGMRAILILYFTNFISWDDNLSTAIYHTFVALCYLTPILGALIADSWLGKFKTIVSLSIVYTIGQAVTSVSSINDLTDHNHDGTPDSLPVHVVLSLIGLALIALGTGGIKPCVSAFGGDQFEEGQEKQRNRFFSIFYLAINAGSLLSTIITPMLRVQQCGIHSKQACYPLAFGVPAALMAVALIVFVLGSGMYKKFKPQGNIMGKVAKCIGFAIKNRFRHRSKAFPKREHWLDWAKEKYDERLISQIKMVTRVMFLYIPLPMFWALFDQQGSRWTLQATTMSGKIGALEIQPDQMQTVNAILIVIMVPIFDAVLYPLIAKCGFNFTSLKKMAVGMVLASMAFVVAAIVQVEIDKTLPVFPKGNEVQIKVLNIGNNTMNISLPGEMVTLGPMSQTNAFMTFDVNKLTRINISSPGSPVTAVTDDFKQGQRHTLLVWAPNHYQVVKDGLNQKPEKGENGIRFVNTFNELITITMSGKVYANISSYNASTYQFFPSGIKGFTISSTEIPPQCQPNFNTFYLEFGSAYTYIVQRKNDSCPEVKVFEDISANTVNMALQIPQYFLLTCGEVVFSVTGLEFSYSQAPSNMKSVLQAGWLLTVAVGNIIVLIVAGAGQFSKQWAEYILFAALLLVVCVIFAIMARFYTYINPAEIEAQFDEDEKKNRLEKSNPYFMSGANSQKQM
As to the kind of experiment: Activity measurement with glibenclamide on protein-loaded sensor chip (SurfE2R system), current amplitude on change from non-activating to activating solution. Also on record: expressed in transfected cells; host or cells: CHO cells (plasma membrane preparation). To be noted: 100 μM glibenclamide in both activating and non-activating solution; CHO plasma membrane preparation on sensor chip; FIG. 1. In kind it is biochemical. As for the experimental part:
The measurements were carried out as above, although both solutions contained activating and non-activating solution and additionally 100 μM glibenclamide.

Data set [2] addresses T1, PepT1. Also on record: host or cells: oocytes. To be noted: oocytes; cited from earlier work.
A short description of data set [3]: Solubility of glibenclamide. The format is physicochemical.

Take `NCc1ccc(C(=O)O)cc1` [4-aminomethyl benzoic acid]: the “Affinity to the transporter” value in the data set on peptide transporter was “only a slight affinity”.

As usually defined, the IC50 is the midpoint of a concentration-inhibition curve. Consider `COc1ccc(Cl)cc1C(=O)NCCc1ccc(S(=O)(=O)NC(=O)NC2CCCCC2)cc1` [glibenclamide], for which, at PepT1 [1], the “Effect on current amplitude (PepT1 transport current I(t))” value is “inhibition of the current amplitude”. Moreover, on PepT1 [2], the IC50 was about 100 µM. Besides, the Solubility entry in data set [3] was “poor solubility”.
